Test results: ChEMBL document CHEMBL1240303, “Inhibiting transcription of chromosomal DNA with antigene peptide nucleic acids” (2005)
The source made the active and inactive calls. The rule behind the calls is not given here.

Legend:
T47D [1] = experiment: Induction of morphology changes in human T47D cells expressing human progesterone receptor assessed as increase in cell height by confocal microscopy; assay type: functional, cell-based
T47D [2] = experiment: Inhibition of human progesterone receptor A protein expression transfected in human T47D cells at 200 nM in presence of 10 nM of estradiol by Western blot; assay type: functional, cell-based
T47D [3] = experiment: Inhibition of human progesterone receptor B protein expression transfected in human T47D cells at 200 nM in presence of 10 nM of estradiol by Western blot; assay type: functional, cell-based
T47D [4] = experiment: Reduction in cell proliferation of human T47D cells expressing human progesterone receptor by FACS method; assay type: functional, cell-based
T47D [5] = experiment: Inhibition of human progesterone receptor B protein expression transfected in human T47D cells at 200 nM by Western blot; assay type: functional
T47D [6] = experiment: Increase in Ezrin mRNA expression in human T47D cells expressing human progesterone receptor by RT-PCR relative to untreated control; assay type: functional
T47D [7] = experiment: Inhibition of human progesterone receptor B gene expression transfected in human T47D cells at 200 nM by RT-PCR; assay type: functional, cell-based
T47D [8] = experiment: Inhibition of human progesterone receptor A gene expression transfected in human T47D cells at 200 nM by RT-PCR; assay type: functional, cell-based
T47D [9] = experiment: Inhibition of human progesterone receptor A protein expression transfected in human T47D cells at 200 nM by Western blot; assay type: functional

| Structure (SMILES) | Activity (T47D [1]) | inhibition (T47D [2]) | inhibition (T47D [3]) | Activity (T47D [4]) | inhibition at 0.2 µM (T47D [5]) [%] | fold change (FC) (T47D [6]) | inhibition (T47D [7]) | inhibition (T47D [8]) | inhibition at 0.2 µM (T47D [9]) [%] | inhibition (T47D [5]) | Activity (T47D [6]) | inhibition (T47D [9]) |
| --- | --- | --- | --- | --- | --- | --- | --- | --- | --- | --- | --- | --- |
| Cc1cn(CC(=O)N(CCNC(=O)CNC(=O)[C@@H](N)CCCCN)CC(=O)NCCN(CC(=O)NCCN(CC(=O)NCCN(CC(=O)NCCN(CC(=O)NCCN(CC(=O)NCCN(CC(=O)NCCN(CC(=O)NCCN(CC(=O)NCCN(CC(=O)NCCN(CC(=O)NCCN(CC(=O)NCCN(CC(=O)NCCN(CC(=O)NCCN(CC(=O)NCCN(CC(=O)NCCN(CC(=O)NCCN(CC(=O)NCCN(CC(=O)N[C@@H](CCCCN)C(=O)O)C(=O)Cn2ccc(N)nc2=O)C(=O)Cn2cnc3c(=O)[nH]c(N)nc32)C(=O)Cn2cnc3c(=O)[nH]c(N)nc32)C(=O)Cn2cnc3c(N)ncnc32)C(=O)Cn2cnc3c(N)ncnc32)C(=O)Cn2cnc3c(=O)[nH]c(N)nc32)C(=O)Cn2cc(C)c(=O)[nH]c2=O)C(=O)Cn2ccc(N)nc2=O)C(=O)Cn2cnc3c(=O)[nH]c(N)nc32)C(=O)Cn2cnc3c(N)ncnc32)C(=O)Cn2cnc3c(=O)[nH]c(N)nc32)C(=O)Cn2cc(C)c(=O)[nH]c2=O)C(=O)Cn2ccc(N)nc2=O)C(=O)Cn2cnc3c(N)ncnc32)C(=O)Cn2cnc3c(=O)[nH]c(N)nc32)C(=O)Cn2cc(C)c(=O)[nH]c2=O)C(=O)Cn2cnc3c(N)ncnc32)C(=O)Cn2ccc(N)nc2=O)c(=O)[nH]c1=O | Active | Active | Active | Active | 75 | 6 | inactive | inactive | 75 | – | – | – |
| Cc1cn([C@@H]2O[C@H](COP(=O)(O)O[C@H]3[C@@H](O)[C@H](n4cnc5c(=O)[nH]c(N)nc54)O[C@@H]3COP(=O)(O)O[C@H]3[C@@H](O)[C@H](n4ccc(=O)[nH]c4=O)O[C@@H]3COP(=O)(O)O[C@H]3C[C@H](n4cnc5c(N)ncnc54)O[C@@H]3COP(=O)(O)O[C@H]3[C@@H](O)[C@H](N4CC=C(N)NC4=O)O[C@@H]3COP(=O)(O)O[C@H]3[C@@H](O)[C@H](n4ccc(=O)[nH]c4=O)O[C@@H]3COP(=O)(O)O[C@H]3[C@@H](O)[C@H](N4CC=C(N)NC4=O)O[C@@H]3COP(=O)(O)O[C@H]3C[C@H](n4cnc5c(=O)[nH]c(N)nc54)O[C@@H]3COP(=O)(O)O[C@H]3[C@@H](O)[C@H](n4ccc(N)nc4=O)O[C@@H]3COP(=O)(O)O[C@H]3[C@@H](O)[C@H](n4ccc(N)nc4=O)O[C@@H]3COP(=O)(O)O[C@H]3[C@@H](O)[C@H](n4ccc(N)nc4=O)O[C@@H]3COP(=O)(O)O[C@H]3[C@@H](O)[C@H](n4ccc(N)nc4=O)O[C@@H]3COP(=O)(O)O[C@H]3[C@@H](O)[C@H](n4ccc(=O)[nH]c4=O)O[C@@H]3COP(=O)(O)O[C@H]3[C@@H](O)[C@H](n4cnc5c(=O)[nH]c(N)nc54)O[C@@H]3COP(=O)(O)O[C@H]3[C@@H](O)[C@H](n4ccc(=O)[nH]c4=O)O[C@@H]3COP(=O)(O)O[C@H]3C[C@H](n4ccc(=O)[nH]c4=O)O[C@@H]3COP(=O)(O)O[C@H]3[C@@H](O)[C@H](n4cnc5c(=O)[nH]c(N)nc54)O[C@@H]3COP(=O)(O)O[C@H]3[C@@H](O)[C@H](n4ccc(=O)[nH]c4=O)O[C@@H]3COP(=O)(O)O[C@H]3[C@@H](O)[C@H](n4cnc5c(=O)[nH]c(N)nc54)O[C@@H]3COP(=O)(O)O[C@H]3[C@@H](O)[C@H](n4cnc5c(=O)[nH]c(N)nc54)O[C@@H]3CO)[C@@H](OP(=O)(O)OC[C@H]3O[C@@H](n4cc(C)c(=O)[nH]c4=O)C[C@@H]3O)[C@H]2O)c(=O)[nH]c1=O | Active | – | – | Active | – | 5.5 | – | – | – | – | – | – |
| Cc1cn(CC(=O)N(CCNC(=O)CNC(=O)[C@@H](N)CCCCN)CC(=O)NCCN(CC(=O)NCCN(CC(=O)NCCN(CC(=O)NCCN(CC(=O)NCCN(CC(=O)NCCN(CC(=O)NCCN(CC(=O)NCCN(CC(=O)NCCN(CC(=O)NCCN(CC(=O)NCCN(CC(=O)NCCN(CC(=O)NCCN(CC(=O)NCCN(CC(=O)NCCN(CC(=O)NCCN(CC(=O)NCCN(CC(=O)NCCN(CC(=O)N[C@@H](CCCCN)C(=O)O)C(=O)Cn2ccc(N)nc2=O)C(=O)Cn2cnc3c(=O)[nH]c(N)nc32)C(=O)Cn2cnc3c(=O)[nH]c(N)nc32)C(=O)Cn2cc(C)c(=O)[nH]c2=O)C(=O)Cn2cnc3c(N)ncnc32)C(=O)Cn2cnc3c(=O)[nH]c(N)nc32)C(=O)Cn2cc(C)c(=O)[nH]c2=O)C(=O)Cn2cc(C)c(=O)[nH]c2=O)C(=O)Cn2cnc3c(=O)[nH]c(N)nc32)C(=O)Cn2cnc3c(N)ncnc32)C(=O)Cn2cnc3c(=O)[nH]c(N)nc32)C(=O)Cn2ccc(N)nc2=O)C(=O)Cn2ccc(N)nc2=O)C(=O)Cn2cnc3c(N)ncnc32)C(=O)Cn2cnc3c(=O)[nH]c(N)nc32)C(=O)Cn2ccc(N)nc2=O)C(=O)Cn2cnc3c(N)ncnc32)C(=O)Cn2ccc(N)nc2=O)c(=O)[nH]c1=O | inactive | – | – | inactive | – | – | inactive | inactive | – | inactive | inactive | inactive |
| Cc1cn(CC(=O)N(CCNCC(=O)N(CCNC(=O)CN(CCNC(=O)CN(CCNC(=O)CN(CCNC(=O)CN(CCNC(=O)CN(CCNC(=O)CN(CCNC(=O)CN(CCNC(=O)CN(CCNC(=O)CN(CCNC(=O)CN(CCNC(=O)CN(CCNC(=O)CNC(=O)[C@@H](N)CCCCN)C(=O)Cn2cc(C)c(=O)[nH]c2=O)C(=O)Cn2cnc3nc(N)[nH]c(=O)c32)C(=O)Cn2c(N)ccnc2=O)C(=O)Cn2c(N)ccnc2=O)C(=O)Cn2c(N)ccnc2=O)C(=O)Cn2c(N)ccnc2=O)C(=O)Cn2c(N)ccnc2=O)C(=O)Cn2cnc3c(N)ncnc32)C(=O)Cn2cnc3nc(N)[nH]c(=O)c32)C(=O)Cn2cnc3c(N)ncnc32)C(=O)Cn2c(N)ccnc2=O)C(=O)Cn2cnc3c(N)ncnc32)CC(=O)NCCN(CC(=O)NCCN(CC(=O)NCCN(CC(=O)NCCN(CC(=O)NCCN(CC(=O)NCCN(CC(=O)N[C@@H](CCCCN)C(=O)O)C(=O)Cn2c(N)ccnc2=O)C(=O)Cn2cnc3nc(N)[nH]c(=O)c32)C(=O)Cn2cnc3nc(N)[nH]c(=O)c32)C(=O)Cn2cc(C)c(=O)[nH]c2=O)C(=O)Cn2c(N)ccnc2=O)C(=O)Cn2cnc3nc(N)[nH]c(=O)c32)c(=O)[nH]c1=O | – | – | – | – | – | – | – | – | – | inactive | – | inactive |
| Cc1cn([C@H]2C[C@H](OP(=O)(O)OC[C@H]3O[C@@H](n4cc(C)c(=O)[nH]c4=O)C[C@@H]3O)[C@@H](COP(=O)(O)O[C@H]3[C@@H](O)[C@H](n4ccc(=O)[nH]c4=O)O[C@@H]3COP(=O)(O)O[C@H]3[C@@H](O)[C@H](n4ccc(N)nc4=O)O[C@@H]3COP(=O)(O)O[C@H]3[C@@H](O)[C@H](n4cnc5c(N)ncnc54)O[C@@H]3COP(=O)(O)O[C@H]3C[C@H](n4cnc5c(N)ncnc54)O[C@@H]3COP(=O)(O)O[C@H]3[C@@H](O)[C@H](n4ccc(N)nc4=O)O[C@@H]3COP(=O)(O)O[C@H]3C[C@H](n4cnc5c(N)ncnc54)O[C@@H]3COP(=O)(O)O[C@H]3[C@@H](O)[C@H](N4CC=C(N)NC4=O)O[C@@H]3COP(=O)(O)O[C@H]3[C@@H](O)[C@H](n4cnc5c(=O)[nH]c(N)nc54)O[C@@H]3COP(=O)(O)O[C@H]3[C@@H](O)[C@H](n4cnc5c(N)ncnc54)O[C@@H]3COP(=O)(O)O[C@H]3[C@@H](O)[C@H](N4CC=C(N)NC4=O)O[C@@H]3COP(=O)(O)O[C@H]3[C@@H](O)[C@H](n4cnc5c(=O)[nH]c(N)nc54)O[C@@H]3COP(=O)(O)O[C@H]3[C@@H](O)[C@H](n4cnc5c(=O)[nH]c(N)nc54)O[C@@H]3COP(=O)(O)O[C@H]3[C@@H](O)[C@H](n4cnc5c(=O)[nH]c(N)nc54)O[C@@H]3COP(=O)(O)O[C@H]3C[C@H](n4cnc5c(N)ncnc54)O[C@@H]3COP(=O)(O)O[C@H]3[C@@H](O)[C@H](n4cnc5c(N)ncnc54)O[C@@H]3COP(=O)(O)O[C@H]3[C@@H](O)[C@H](n4cnc5c(=O)[nH]c(N)nc54)O[C@@H]3COP(=O)(O)O[C@H]3[C@@H](O)[C@H](n4cnc5c(=O)[nH]c(N)nc54)O[C@@H]3COP(=O)(O)O[C@H]3[C@@H](O)[C@H](n4ccc(=O)[nH]c4=O)O[C@@H]3COP(=O)(O)O[C@H]3[C@@H](O)[C@H](n4cnc5c(N)ncnc54)O[C@@H]3CO)O2)c(=O)[nH]c1=O | Active | – | – | Active | – | – | – | – | – | – | – | – |
| Cc1cn(CC(=O)N(CCNC(=O)CN(CCNC(=O)CN(CCNC(=O)CN(CCNC(=O)CN(CCNC(=O)CN(CCNC(=O)CN(CCNC(=O)CNC(=O)[C@@H](N)CCCCN)C(=O)Cn2c(N)ccnc2=O)C(=O)Cn2cnc3c(N)ncnc32)C(=O)Cn2c(N)ccnc2=O)C(=O)Cn2cnc3nc(N)[nH]c(=O)c32)C(=O)Cn2cnc3c(N)ncnc32)C(=O)Cn2cc(C)c(=O)[nH]c2=O)CC(=O)NCCN(CC(=O)NCCN(CC(=O)NCCN(CC(=O)NCCN(CC(=O)NCCN(C(=O)CNCCN(CC(=O)NCCN(CC(=O)NCCN(CC(=O)NCCN(CC(=O)NCCN(CC(=O)NCCN(CC(=O)NCCN(CC(=O)N[C@@H](CCCCN)C(=O)O)C(=O)Cn2cc(C)c(=O)[nH]c2=O)C(=O)Cn2cc(C)c(=O)[nH]c2=O)C(=O)Cn2cc(C)c(=O)[nH]c2=O)C(=O)Cn2cnc3nc(N)[nH]c(=O)c32)C(=O)Cn2cc(C)c(=O)[nH]c2=O)C(=O)Cn2cnc3c(N)ncnc32)C(=O)Cn2c(N)ccnc2=O)C(=O)Cn2cnc3nc(N)[nH]c(=O)c32)C(=O)Cn2cc(C)c(=O)[nH]c2=O)C(=O)Cn2c(N)ccnc2=O)C(=O)Cn2cc(C)c(=O)[nH]c2=O)C(=O)Cn2cc(C)c(=O)[nH]c2=O)c(=O)[nH]c1=O | inactive | – | – | inactive | – | – | – | – | – | inactive | – | inactive |
